Patent US11278525B1, “Further molecules, compositions and methods for modulation of SIRT6” (SirTLab Corporation, priority 2017, dated 2022)

What follows are compounds tested against SIRT6 (Homo sapiens, UniProt Q8N6T7) (assay: SIRT6 enzymatic activity assay with fluorophore (AMC)-labeled Lysin-myristoylated histone H3 peptide (de-myristoylation, trypsin release)). Details: amount tested 20 uM; Example 5, Table 9.
Chain of SIRT6 (Q8N6T7 whole entry): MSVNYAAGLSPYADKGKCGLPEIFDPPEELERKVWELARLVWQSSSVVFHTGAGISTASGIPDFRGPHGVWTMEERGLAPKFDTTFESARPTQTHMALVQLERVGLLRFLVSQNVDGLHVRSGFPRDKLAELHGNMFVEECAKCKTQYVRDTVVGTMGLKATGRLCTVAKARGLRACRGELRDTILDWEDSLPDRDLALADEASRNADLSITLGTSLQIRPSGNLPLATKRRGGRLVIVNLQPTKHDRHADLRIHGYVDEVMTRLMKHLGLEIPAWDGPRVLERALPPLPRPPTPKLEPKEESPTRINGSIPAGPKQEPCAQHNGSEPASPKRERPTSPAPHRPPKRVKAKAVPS
Type: biochemical
Set-up: six-histidine tag; made in house; host or cells: Escherichia coli BL21
Procedure: Human recombinant SIRT6 (sequence identifier: CAG33481.1; GI:4814651) was expressed in large scale in Escherichia coli strain BL21 as a six-histidine-tagged protein, after transformation of the expression plasmid pET28-SIRT6. The SIRT6 enzyme was purified from the bacteria culture broth in a two-step strategy. The first purification step was carried out by cation exchange chromatography on a HiTrap CM-Sepharose column (GE Healthcare) using an FPLC system. The second purification step was performed by immobilized metal ion affinity chromatography (IMAC) using a cobalt affinity column (Clontech).
The enzymatic activity assay is carried out in 96 or 384-well microplates using the purified recombinant SIRT6 and a fluorophore-labeled peptide substrate: 7-amino-4-methylcoumarin (AMC) that is quenched through conjugation to the C-terminal end of a Lysin-myristoylated histone H3 peptide. The activity assay procedure requires two steps, both performed in the same microplate. In the first step, the substrate is incubated with the purified SIRT6 protein along with the co-substrate nicotinamide adenine dinucleotide (NAD+). Upon de-myristoylation, the liberated ε-amino group of the lysine becomes a trypsin substrate. Treatment with trypsin in the second step releases the fluorophore resulting in an increase in fluorescence. Fluorescence intensity is measured using a fluorescent plate reader (excitation and emission at 370 nm and 450 nm, respectively). The fluorescence signal is directly proportional to SIRT6 enzymatic activity.
In the primary screening, compounds from a library (ChemDiv Inc.) were tested at a single concentration of 20 micromolar for their potential to modulate SIRT6 enzymatic activity. The assay was carried out in 384-well black well plates and all liquid handling was done using a robotic liquid handler. Purified recombinant SIRT6 (1 micromolar) was pre-incubated with each compound (or DMSO in control wells) for 15 minutes at room temperature. The first stage of the assay was initiated by adding a ‘substrate solution’ containing the myristoylated histone H3 peptide and NAD+(for final concentrations of 25 micromolar and 20 micromolar, respectively). After one hour incubation at 37° C., a Trypsin solution (6 mg/mL) was added for 30 minutes at room temperature. Fluorescence intensity was measured using a fluorescent plate reader (Tecan) with excitation at 370 nm and emission at 450 nm. The effect of each tested compound was evaluated by the change in the fluorescence intensity compared to control wells. […] To validate the primary screening results, each of the primary “hits” was re-tested, first at concentration of 20 micromolar in duplicates and later at a serial dilution ranging from 100 to 0.2 micromolar in triplicates.
Results of Assay—The results of the assay are given below in Tables 1-3.
Additional molecules were tested according to the methods and materials of Example 1. The amount tested was 20 uM for each molecule.
For `CCCc1ccc(-c2ccc(C(=O)Nc3nc4ccc(C)cc4s3)cc2)nc1` [0703-6407], the “% Activity” value was 40%. `CCCCCCOc1ccc(C(=O)Nc2nc3ccc(OC)cc3s2)cc1` [0938-8060] was tested, and the “% Activity” value was 47%. For `CCCc1cc2c(=O)c(-c3ccc4c(c3)OCO4)coc2cc1OC(C)=O` [2188-3841], the “% Activity” value was 21%. With `CC(=O)Oc1ccc2c(C)c(Cc3ccccc3)c(=O)oc2c1C` [2259-4062] the “% Activity” value was 137%. `CCC(=O)Oc1ccc2c(C)c(Cc3ccccc3)c(=O)oc2c1C` [2259-4063] was tested, and the “% Activity” value was 273%. In the case of `COc1ccc(C(=O)Oc2ccc3c4c(c(=O)oc3c2)CCC4)cc1` [2712-3502], the “% Activity” value is reported as 264%. For `O=C(Oc1ccc2c3c(c(=O)oc2c1)CCC3)c1cccs1` [2712-4058], the “% Activity” value was 455%. In the case of `COc1cc(C(=O)Oc2ccc3c4c(c(=O)oc3c2)CCC4)cc(OC)c1OC` [2712-4061], the “% Activity” value is reported as 52%. `Cc1ccccc1C(=O)Oc1ccc2c3c(c(=O)oc2c1)CCC3` [2712-4063] was tested, and the “% Activity” value was 61%. For `COc1ccc(C(=O)Oc2ccc3c4c(c(=O)oc3c2)CCC4)cc1OC` [2712-4069], the “% Activity” value was 294%. `CC(=O)Oc1ccc2c3c(c(=O)oc2c1C)CCCC3` [3330-4541] was tested, and the “% Activity” value was 105%. For `Cc1ccc(COc2ccc3c4c(c(=O)oc3c2C)CCC4)cc1` [3338-2074], the “% Activity” value was 21%. For `COc1cc(OC)cc(C(=O)Nc2nc3c(cc4c5c(cccc53)CC4)s2)c1` [3343-0231], the “% Activity” value was 24%. `COC(=O)COc1cccc2c1ccc1c3c(c(=O)oc12)CCCC3` [3532-0820] was tested, and the “% Activity” value was 30%. In the case of `CC(=O)Oc1ccc(C(=O)Nc2nc3c(C)cc(C)cc3s2)cc1` [3659-2007], the “% Activity” value is reported as 27%. In the case of `Cc1c(OC(=O)c2ccccc2)ccc2c3c(c(=O)oc12)CCC3` [4986-0081], the “% Activity” value is reported as 41%. In the case of `Cc1nc2cc(-c3ccccc3)nn2c(C(C)(C)C)c1C` [5197-0134], the “% Activity” value is reported as 21%. `O=C(C1=CC=CC1)n1nc(-c2ccccc2)nc1NCc1ccco1` [6855-0211] was tested, and the “% Activity” value was 77%. For `COC(=O)c1ccccc1NC(=O)Cn1c(S(=O)(=O)Cc2ccccc2)nc2ccccc21` [7398-1534], the “% Activity” value was 27%. In the case of `CCS(=O)(=O)c1nc2ccccc2n1CC(=O)Nc1ccccc1C(=O)OC` [7398-1618], the “% Activity” value is reported as 156%. With `O=C(c1ccccc1Br)N1C(=O)c2ccccc2S1(=O)=O` [8006-3826] the “% Activity” value was 56%. For `COC(=O)CSc1ccc(C#N)c(SCC(=O)OC)c1` [8012-3471], the “% Activity” value was 23%. In the case of `Cc1cc(C)c2c(N)c(-c3nnc(-c4ccccc4)o3)sc2n1` [8018-7776], the “% Activity” value is reported as 42%. In the case of `CN(C)CCCN(C(=O)CCOc1ccccc1)c1nc2ccc(Cl)cc2s1` [B677-0564], the “% Activity” value is reported as 28%. With `CCOc1cccc2sc(N(CCN(C)C)C(=O)CCS(=O)(=O)c3ccccc3)nc12` [E676-1270] the “% Activity” value was 61%. `CN(C)CCN(C(=O)CCS(=O)(=O)c1ccccc1)c1nc2c(Cl)cccc2s1` [E676-1524] was tested, and the “% Activity” value was 80%. `COc1ccc(C)c2sc(N(CCN(C)C)C(=O)CCS(=O)(=O)c3ccccc3)nc12` [E676-2540] was tested, and the “% Activity” value was 59%. In the case of `CCN(CC)CCN(C(=O)CCS(=O)(=O)c1ccccc1)c1nc2c(C)cccc2s1` [E676-3810], the “% Activity” value is reported as 121%. With `CCN(CC)CCN(C(=O)CCOc1ccccc1)c1nc2c(F)cccc2s1` [E676-4120] the “% Activity” value was 60%. For `CCN(CC)CCN(C(=O)CCOc1ccccc1)c1nc2c(F)cc(F)cc2s1` [E676-5517], the “% Activity” value was 38%. `CN(C)CCCN(C(=O)CCS(=O)(=O)c1ccccc1)c1nc2ccc(F)cc2s1` [E677-0508] was tested, and the “% Activity” value was 53%. With `CN(C)CCCN(C(=O)CCOc1ccccc1)c1nc2ccc(Br)cc2s1` [E677-0691] the “% Activity” value was 28%. In the case of `COc1cccc2sc(N(CCCN(C)C)C(=O)CCOc3ccccc3)nc12` [E677-1072], the “% Activity” value is reported as 117%. In the case of `COc1cccc2sc(N(CCCN(C)C)C(=O)CCSc3ccccc3)nc12` [E677-1137], the “% Activity” value is reported as 111%. For `COc1cccc2sc(N(CCCN(C)C)C(=O)CCS(=O)(=O)c3ccccc3)nc12` [E677-1143], the “% Activity” value was 111%. For `CN(C)CCCN(C(=O)CCS(=O)(=O)c1ccccc1)c1nc2c(F)cccc2s1` [E677-1397], the “% Activity” value was 95%. With `Cc1ccc2sc(N(CCCN(C)C)C(=O)CCS(=O)(=O)c3ccccc3)nc2c1C` [E677-2159] the “% Activity” value was 70%. With `Cc1cc(C)c2sc(N(CCCN(C)C)C(=O)CCS(=O)(=O)c3ccccc3)nc2c1` [E677-2413] the “% Activity” value was 115%. For `CCC(=O)Nc1nc2c(OC)cc(NC(=O)c3ccccc3OC)cc2s1` [F259-0462], the “% Activity” value was 117%. In the case of `O=C(CSc1nc2ncccc2n2cccc12)NCc1ccco1` [G117-0491], the “% Activity” value is reported as 88%. With `COc1ccc(CN2CCN(C(=O)c3ccc(N4CCc5ccccc54)s3)CC2)c(OC)c1OC` [G122-1838] the “% Activity” value was 45%.

Same assay, conditions: compound 20 uM; percentage of signal increase relative to control wells; Tables 1-2
`Cc1ccnc(NC(c2ccc(Cl)cc2Cl)c2ccc3cccnc3c2O)c1` (centres unmarked) [4896-3248] was tested, and the “% activity 20 uM” value was 30%. In the case of `O=c1[nH]c2ccc(Cl)cc2c(-c2ccccc2)c1Nc1ccc(Oc2ccccc2)cc1` [8013-3307], the “% activity 20 uM” value is reported as 24%.

Same assay, conditions: compound 100 uM; percentage of signal increase relative to control wells; Tables 1-2
For `C=C(Cc1ccc2c(c1)C(C)=CC(C)(C)N2)Cc1cccc2ccccc12` [4477-0762], the “% activity Max. conc. 100 uM” value was 56%. For `CC1=CC(C)(C)Nc2ccc(OC(=O)c3cccs3)cc21` [4477-2607], the “% activity Max. conc. 100 uM” value was 54%. `Cc1ccnc(NC(c2ccc(Cl)cc2Cl)c2ccc3cccnc3c2O)c1` (centres unmarked) [4896-3248] was tested, and the “% activity Max. conc. 100 uM” value was 28%. With `Cn1c(-c2ccc3[nH]c(-c4ccc(N)cc4)nc3c2)nc2cc(N)ccc21` [6843-3168] the “% activity Max. conc. 100 uM” value was 162%. In the case of `CCc1nnc(NC(=O)CSc2nc(N)nc(SC)c2C#N)s1` [8001-8196], the “% activity Max. conc. 100 uM” value is reported as 25%. For `C=C(CS)Nc1ccc(CCCCC)cc1` [8008-0525], the “% activity Max. conc. 100 uM” value was 48%. In the case of `C=C(CN1c2ccccc2C(C)(C)C12C=Cc1c(ccc3ccccc13)C2)NC` (centres unmarked) [8008-8279], the “% activity Max. conc. 100 uM” value is reported as 27%. `Cc1nc2sc(-c3nc4ccccc4[nH]3)c(N)c2c(C)c1Cl` [8012-5593] was tested, and the “% activity Max. conc. 100 uM” value was 59%. With `O=c1[nH]c2ccc(Cl)cc2c(-c2ccccc2)c1Nc1ccc(Oc2ccccc2)cc1` [8013-3307] the “% activity Max. conc. 100 uM” value was 86%. With `N#Cc1c(N)oc(C2=CC=CC2)c1-c1ccco1` [8014-9229] the “% activity Max. conc. 100 uM” value was 48%. For `O=c1cc(O)c2sc3nc4c(cc3c2[nH]1)CCCCC4` [8018-3339], the “% activity Max. conc. 100 uM” value was 75%. For `C=C1Nc2nc(OC(C)=O)c(C)c(C)c2S1` [8018-4551], the “% activity Max. conc. 100 uM” value was 197%. For `COc1ccc(-c2nn3c(C)nnc3s2)cc1N` [8018-6508], the “% activity Max. conc. 100 uM” value was 18%. `CC1=NCC(c2ccc(O)cc2O)=C1c1ccc(Cl)cc1` [8020-1200] was tested, and the “% activity Max. conc. 100 uM” value was 94%. With `C=C(OC(C)CC)C1=C(C)NC2=C(C(=C)C(C(=C)OC)C(C)C2)C1c1ccc(N(CC)CC)cc1` (centres unmarked) [C142-0098] the “% activity Max. conc. 100 uM” value was 61%. `COc1ccc(-c2csc3c(NN)ncnc23)cc1` [C201-1744] was tested, and the “% activity Max. conc. 100 uM” value was 22%. In the case of `C=S(=C)(c1cc(Cl)ccc1Cl)n1c(/C=C/c2ccc(SC)cc2)nc2ccccc21` [C381-0232], the “% activity Max. conc. 100 uM” value is reported as 36%. For `CCN1CCCC1CNC(=O)C1CCN(c2cc(C)nc3c(-c4ccc(Cl)cc4)c(C)nn23)CC1` (centres unmarked) [C535-0969], the “% activity Max. conc. 100 uM” value was 29%. `Cc1ccccc1CSc1ncc(Sc2ccccc2)c(C(=O)NCc2ccccc2)n1` [D506-0127] was tested, and the “% activity Max. conc. 100 uM” value was 65%. `Cc1cc(NC(=O)CSc2nnc(-c3sc4ncccc4c3N)n2C)ccc1Cl` [D549-0050] was tested, and the “% activity Max. conc. 100 uM” value was 47%. In the case of `Cc1cc(Nc2ccc(NC(=O)Nc3ccc4c(c3)CCCO4)cc2)nc(NC2CCCCC2)n1` [D577-0290], the “% activity Max. conc. 100 uM” value is reported as 22%. In the case of `CC[C@H]1O[C@@H](Cc2ccc3c(c2C)CC(=O)C(C)=C3C)[C@H](C)[C@@H](O)[C@H]1C` [D715-0292], the “% activity Max. conc. 100 uM” value is reported as 56%. For `O=C(NCc1cccc(Cl)c1)c1noc2c1CSc1ccccc1-2` [E146-0990], the “% activity Max. conc. 100 uM” value was 137%. For `C=C1Cc2ccc(C)cc2C2=C1C(c1ccc(F)cc1)=C(NCCOC)C2` [F025-0094], the “% activity Max. conc. 100 uM” value was 246%. For `C=C1Oc2ccc(C)cc2-c2oc(NCCOC)c(-c3ccc(OCC)cc3)c21` [F025-0098], the “% activity Max. conc. 100 uM” value was 226%. `COCCNc1oc2c(c1-c1ccc(C)cc1)c(=O)oc1c(C)cccc12` [F025-0102] was tested, and the “% activity Max. conc. 100 uM” value was 111%. `Cc1ccc(NC(=O)c2nnc(-c3ccc(NC(=O)c4cccs4)cc3)s2)cc1` [F498-0132] was tested, and the “% activity Max. conc. 100 uM” value was 16%. For `C=C(CN1C(=C)C(c2nc(-c3ccccc3)no2)=C(C)C=C1C)NCCc1ccc(CC)c(CC)c1` [G744-0071], the “% activity Max. conc. 100 uM” value was 73%.
